From patent US20140272067A1, “ORGANIC COMPOUNDS” (Givaudan S.A., priority 2011, published 2014)

What was measured:
Assay type in all cases: in vivo
[1] = Taste panel: umami and salt intensity of solution B vs reference solution A (Example 2); conditions: 10 ppm compound in 0.5% NaCl and 0.03% MSG vs same solution without compound; scale -3 (much lower than base) to 3 (much higher than base); average of 4 flavourists
Experimental: Two solutions were prepared: • A a solution of 0.5% NaCl and 0.03% MSG • B a solution of 0.5% NaCl and 0.03% MSG and 10 ppm Example 1 compound
The samples were tasted by a small group of flavourists (2 male, 2 female, aged between 30 and 60). The intensity of the umami and salt taste of solution B was compared with that of the reference (solution A) and rated according to the following intensity scale: • Taste effect much lower than base: −3 • Taste effect lower than base: −2 • Taste effect slightly lower than base: −1 • Taste effect same as base: 0 • Taste effect slightly higher than base: 1 • Taste effect higher than base: 2 • Taste effect much higher than base: 3
The results (average of ratings given by the flavourists) were: […]

[2] = Taste panel: enhancement effect on NaCl, MSG and ribonucleotides taste (Example 3); conditions: 5-10 flavourists
Experimental: Six solutions were prepared: • A a solution of 0.5% NaCl • B a solution of 0.5% NaCl and 0.03% MSG • C a solution of 0.5% NaCl and 0.015% ribonucleotides • D a solution of 0.5% NaCl and 50 ppm Example 1 compound • E a solution of 0.5% NaCl and 0.03% MSG and 50 ppm Example 1 compound • F a solution of 0.5% NaCl and 0.015% ribonucleotides and 50 ppm Example 1 compound
The samples were tasted by a group of 5-10 flavourists aged between 30 and 60. The taste of solution D is compared with that of A to determine the enhancement effect of Example 1 compound on NaCl. Similarly, solution E is compared with solution B and solution F with solution C to determine the enhancement effect of Example 1 compound on MSG and ribonucleotides respectively. The effect is marked between 0 and 10, the greater the value the greater the effect.

[3] = Taste panel: bouillon with compound vs reference bouillon (Example 4); conditions: 200 ppm in bouillon (32 g mix in 1 L boiling water); 4 flavourists
Experimental: A bouillon mix was prepared from 155.0 g of sodium chloride, 157.0 g of dextrose monohydrate (ex Tapioca), 0.2 g of celery oleoresin, 0.3 g of oleoresin turmeric Vegex, 0.2 g of oleoresin coriander seed, 444.8 g maltodextrin 5-8 DE, 40.0 g vegetable oil soya bean refined, 30.0 g yeast standard light, 4.0 g of onion powder, 4.0 g of garlic powder, 0.5 g of white pepper and 164.0 g of potato starch.
32 g of the well-mixed ingredients was added to 1 L of boiling water and stirred until completely dissolved.
A small group of flavourists (2 male, 2 female) compared the taste of the reference bouillon with that of a batch of the same bouillon containing 200 ppm of N-methyl-D-aspartic acid.

| SMILES | Intensity Taste Salt (NaCl) [1] | Intensity Taste Umami [1] | NaCl Taste ([2]; 50 ppm compound in 0.5% NaCl (solution D) vs solution A (reference 0.0), marked 0 to 10, the greater the value the greater the effect) | Ribo taste ([2]; 50 ppm compound in 0.5% NaCl and 0.015% ribonucleotides (solution F) vs solution C (reference 5.0), marked 0 to 10) | MSG taste ([2]; 50 ppm compound in 0.5% NaCl and 0.03% MSG (solution E) vs solution B (reference 5.0), marked 0 to 10) | Salivating effect of test bouillon vs reference bouillon [3] | Umami taste of test bouillon vs reference bouillon [3] |
| --- | --- | --- | --- | --- | --- | --- | --- |
| CNC(CCC(=O)O)C(=O)O (racemic) [N-methyl-DL-glutamic acid, N-methyl-DL-glutamic Acid] | 1.00 | 0.00 |  |  |  |  |  |
| CN[C@H](CC(=O)O)C(=O)O [N-methyl-D-aspartic acid, N-methyl-D-aspartic Acid] | 0.50 | 0.50 | 0.7 | 6.3 | 5.3 | slightly more salivating | slightly more umami |
